“And” between values parts separate entries of the source, which are not always exact repeats. Equal entries are not always repeated.
How the values were obtained:
Assay type in all cases: cell-based, human
CFU-E = experiment: Colony forming assay, bone marrow CD34+ cells in MethoCult
Description: (§1) Experimental design: human bone marrow (BM) CD34+ cells were used to evaluate the potential for BM toxicity induced by Compound 1. In order to test the effects of Compound 1 on the functionality of hematopoietic progenitors, colony forming assays were done by seeding BM CD34+ cells on MethoCult medium. Cells were seeded directly in MethoCult with Compound 1 or cultured in liquid medium with Compound 1 for 2, 4, or 8 hours and then seeded in compound-free MethoCult to evaluate the effect of different exposure times. Early apoptosis induced by Compound 1 on HSC was analyzed by flow cytometry.
(§2) Results. Colony forming units (CFU) of common granulocyte/erythrocyte/monocyte/megakaryocyte (CFU-GEMM), CFU of granulocyte/monocyte (CFU-GM), burst forming unit of erythrocytes (BFU-E), and CFU of erythrocytes (CFU-E) in cultures exposed to Compound 1 or DMSO were scored on STEMvision.
(§3) Bone marrow CD34+ cells from normal donors were incubated with Compound 1 in MethoCult medium. Colony numbers for CFU-GM and BFU-E progenitors were counted using STEMVision automatic colony counting instrument and software and normalized to the colony number of the DMSO control. Results plotted as percentage of DMSO control vs concentration of Compound 1 were used to determine IC50 values. Data are shown as mean standard error of the mean of n=3 technical replicates. Donors were HD10, HD14, HD18, and HD19.

CFU-GEMM = experiment: as above
Description: as §1, §2, §3

[1] = tested on: Bone marrow mononuclear cells (BMMCs) from high risk MDS patients; experiment: MDS intracellular flow cytometry, active Caspase 3; details: 24 hours exposure
Description: Methods. The effect of Compound 1 on high risk MDS samples was measured in an in vitro liquid culture as well as by colony assays in order to better define its effect on stem/progenitor cells. Bone marrow mononuclear cells (BMMCs) from high risk MDS patients were cultured in vitro in CellGro medium (GellGenix) supplemented with hLDL (40 μg/mL), SCF (50 ng/mL), FLT3 […] (50 ng/mL), IL-3 (10 ng/mL), IL-6 (25 ng/mL) and TPO (100 ng/mL), all from Peprotech. During culture, cells were exposed to different concentrations of Compound 1 (37, 111, 333 and 1000 nM) or DMSO control. After 24 hours, cells were washed twice to remove compound and maintained in culture up to one week, performing viable cell counting on days 1, 3 and 7. Just after compound washout, […] per condition were collected for colony forming assays and another […] were stained for intracellular flow cytometry.
For intracellular flow cytometry measurement of apoptosis cells were fixed in 1.6% paraformaldehyde, permeabilized in ice cold methanol and stained using a FITC-conjugated anti-active Caspase 3 antibody (Becton Dickinson). A FACSCanto II flow cytometer (Becton Dickinson) was used for flow cytometry data acquisition. Flow cytometry standard (FCS) files were analyzed using Infinicyt software (Cytognos).

[2] = tested on: HR-MDS, sAML and normal bone marrow progenitors; experiment: SL/M2 stromal co-culture colony forming assay (cell survival assay)
Description: Methods. Mouse stromal cells SL/M2 stably expressing human interleukin-3 (IL-3), granulocyte colony stimulating factor (G-CSF) and stem cell factor (SCF) were cultured to confluency, followed by gamma-irradiation. Human CD34+ bone marrow cells isolated from 3 high-risk MDS patients (HR-MDS), 3 secondary AML patients arising from MDS (sAML) and 5 age-matched healthy donors were then cultured with inactivated SL/M2 cells for a week. Next, human progenitor cells were quantified by FACS and cells were plated in methylcellulose for colony forming assay (cell survival assay). After two weeks, 20-25 colonies were picked from each condition, resuspended and replated in fresh methylcellulose for 2nd round of colony forming assay (cell self-renewal assay).

[3] = Donor HD10, 7.4 nM Compound 1, replicate counts
[4] = Donor HD10, 22.2 nM Compound 1, replicate counts
[5] = Donor HD10, 67 nM Compound 1, replicate counts
[6] = Donor HD10, 200 nM Compound 1, replicate counts
[7] = Donor HD10, 600 nM Compound 1, replicate counts
[8] = Donor HD14, 7.4 nM Compound 1, replicate counts
[9] = Donor HD14, 22.2 nM Compound 1, replicate counts
[10] = Donor HD14, 67 nM Compound 1, replicate counts
[11] = Donor HD14, 200 nM Compound 1, replicate counts
[12] = Donor HD14, 600 nM Compound 1, replicate counts
[13] = Donor HD18, 7.4 nM Compound 1, replicate counts
[14] = Donor HD18, 22.2 nM Compound 1, replicate counts
[15] = Donor HD18, 67 nM Compound 1, replicate counts
[16] = Donor HD18, 200 nM Compound 1, replicate counts
[17] = Donor HD18, 600 nM Compound 1, replicate counts
[18] = Donor HD19, 7.4 nM Compound 1, replicate counts
[19] = Donor HD19, 22.2 nM Compound 1, replicate counts
[20] = Donor HD19, 67 nM Compound 1, replicate counts
[21] = Donor HD19, 200 nM Compound 1, replicate counts
[22] = Donor HD19, 600 nM Compound 1, replicate counts

O=C1CCC(N2Cc3cc(CNC(=O)C(F)(F)c4ccc(Cl)cc4)ccc3C2=O)C(=O)N1 (stereo not drawn) [Compound 1, 2-(4-chlorophenyl)-N-((2-(2,6-dioxopiperidin-3-yl)-1-oxoisoindolin-5-yl)methyl)-2,2-difluoroacetamide]
Colony Number CFU-E (CFU-E; [3]): 2 | Colony Number CFU-E (CFU-E; [4]): 0 | Colony Number CFU-E (CFU-E; [5]): 0 | Colony Number CFU-E (CFU-E; [6]): 1 and 3 | Colony Number CFU-E (CFU-E; [7]): 0 | Colony Number CFU-E (CFU-E; [8]): 6 and 0 | Colony Number CFU-E (CFU-E; [9]): 7 and 0 | Colony Number CFU-E (CFU-E; [10]): 4 | Colony Number CFU-E (CFU-E; [11]): 1 and 2 | Colony Number CFU-E (CFU-E; [12]): 2 and 0 | Colony Number CFU-E (CFU-E; [13]): 0 and 2 | Colony Number CFU-E (CFU-E; [14]): 7 and 1 | Colony Number CFU-E (CFU-E; [15]): 3 and 0 | Colony Number CFU-E (CFU-E; [16]): 3 and 2 | Colony Number CFU-E (CFU-E; [17]): 1 | Colony Number CFU-E (CFU-E; [18]): 9 and 4 | Colony Number CFU-E (CFU-E; [19]): 4 and 5 | Colony Number CFU-E (CFU-E; [20]): 6 and 3 | Colony Number CFU-E (CFU-E; [21]): 3 and 1 | Colony Number CFU-E (CFU-E; [22]): 1 | Colony Number CFU-GEMM (CFU-GEMM; [3]): 4 and 2 | Colony Number CFU-GEMM (CFU-GEMM; [4]): 2 and 0 | Colony Number CFU-GEMM (CFU-GEMM; [5]): 5 and 1 | Colony Number CFU-GEMM (CFU-GEMM; [6]): 0 | Colony Number CFU-GEMM (CFU-GEMM; [7]): 0 | Colony Number CFU-GEMM (CFU-GEMM; [8]): 0 | Colony Number CFU-GEMM (CFU-GEMM; [9]): 0 | Colony Number CFU-GEMM (CFU-GEMM; [10]): 0 | Colony Number CFU-GEMM (CFU-GEMM; [11]): 0 | Colony Number CFU-GEMM (CFU-GEMM; [12]): 0 | Colony Number CFU-GEMM (CFU-GEMM; [13]): 2 and 4 | Colony Number CFU-GEMM (CFU-GEMM; [14]): 1 | Colony Number CFU-GEMM (CFU-GEMM; [15]): 0 | Colony Number CFU-GEMM (CFU-GEMM; [16]): 0 | Colony Number CFU-GEMM (CFU-GEMM; [17]): 0 | Colony Number CFU-GEMM (CFU-GEMM; [18]): 4 | Colony Number CFU-GEMM (CFU-GEMM; [19]): 0 and 1 | Colony Number CFU-GEMM (CFU-GEMM; [20]): 0 and 1 | Colony Number CFU-GEMM (CFU-GEMM; [21]): 0 | Colony Number CFU-GEMM (CFU-GEMM; [22]): 0 | caspase 3 activation [1]: induction of apoptosis | colony formation (cell survival) [2]: significant cytotoxicity

— US11590117B2, “Treatment of a hematologic malignancy with 2-(4-chlorophenyl)-n-((2-(2,6-dioxopiperidin-3-yl)-1-oxoisoindolin-5-yl)methyl)-2,2-difluoroacetamide” (priority 2016, dated 2023)
